Measurements: PMC10043345, “Discovery of BAR502, as potent steroidal antagonist of leukemia inhibitory factor receptor for the treatment of pancreatic adenocarcinoma” (Frontiers in Oncology, 2023)

Test system: MIA PaCa-2 cells
Experiment: AmpliSeq transcriptome (RNAseq) analysis
Type: cell-based, human
Settings: LIF 10 ng/mL + BAR502 10 µM versus LIF, 24 h
Procedure: MIA PaCa-2 cells were cultured in 6-well tissue culture plate (cell density 1.5 * 10^6/well) in DMEM complete medium. After serum starving, cells were exposed with LIF (10 ng/mL) alone or plus BAR502 (10 µM) or left untreated for 24h. High-quality RNA was extracted from MIA PaCa-2 cells using the PureLink™ RNA Mini Kit (Thermo Fisher Scientific), according to the manufacturer’s instructions. RNA quality and quantity were assessed with the Qubit® RNA HS Assay Kit and a Qubit 3.0 fluorometer followed by agarose gel electrophoresis. Libraries were generated using the Ion AmpliSeq™ Transcriptome Human Gene Expression Core Panel and Chef-Ready Kit (Thermo Fisher Scientific), according to the manufacturer’s instructions. Briefly, 10 ng of RNA was reverse transcribed with SuperScript™ Vilo™ cDNA Synthesis Kit (Thermo Fisher Scientific, Waltham, MA) before library preparation on the Ion Chef™ instrument (Thermo Fisher Scientific, Waltham, MA). The resulting cDNA was amplified to prepare barcoded libraries using the Ion Code™ PCR Plate, and the Ion AmpliSeq™ Transcriptome Human Gene Expression Core Panel (Thermo Fisher Scientific, Waltham, MA), Chef-Ready Kit, according to the manufacturer’s instructions. Barcoded libraries were combined to a final concentration of 100 pM, and used to prepare Template-Positive Ion Sphere™ (Thermo Fisher Scientific, Waltham, MA) Particles to load on Ion 540™ Chips, using the Ion 540™ Kit-Chef (Thermo Fisher Scientific, Waltham, MA). Sequencing was performed on an Ion S5™ Sequencer with Torrent Suite™ Software v6 (Thermo Fisher Scientific). The analyses were performed with a range of fold <−2 and >+2 and a p value < 0.05, using Transcriptome Analysis Console Software (version 4.0.2), certified for AmpliSeq analysis (Thermo-Fisher). The transcriptomic data have been deposited as dataset on Mendeley data repository […].

Question: `CC[C@H]1[C@@H](O)C2C3CC[C@H]([C@H](C)CCO)[C@@]3(C)CCC2[C@@]2(C)CC[C@@H](O)C[C@@H]12` (stereo partly shown) [BAR502] was tested. Which “CCND2 expression Fold Change (FC)” value did it give?
Answer: 16,13

Question: What about the “KIF20A expression Fold Change (FC)” value of the same molecule?
Answer: -17,49

Question: What about the “RRM2 expression Fold Change (FC)” value of the same molecule?
Answer: -14,34

Question: And the “SESN2 expression Fold Change (FC)” value?
Answer: 15,84

Question: And the “SLC7A11 expression Fold Change (FC)” value?
Answer: 35,54

Question: And the “TNFRSF1B (TNFR2) expression Fold Change (FC)” value?
Answer: -11,72

Question: What about the “TOP2A expression Fold Change (FC)” value of the same molecule?
Answer: -9,61
